Data as given in ChEMBL document CHEMBL4673219, “Novel 5,6-disubstituted pyrrolo[2,3-d]pyrimidine derivatives as broad spectrum antiproliferative agents: Synthesis, cell based assays, kinase profile and molecular docking study” (Bioorg Med Chem, 2018).

Tests used:
[1] = tested on: HCT-116; assay: Antiproliferative activity against human HCT-116 cells assessed as cell growth inhibition at 10 uM measured after 72 hrs by MTT assay relative to control; assay type: functional; conditions: read-out: GI
[2] = tested on: SK-BR-3; assay: Antiproliferative activity against human SK-BR-3 cells assessed as cell growth inhibition at 10 uM measured after 72 hrs by MTT assay relative to control; assay type: functional; conditions: read-out: GI
[3] = tested on: MCF7; assay: Antiproliferative activity against human MCF7 cells assessed as cell growth inhibition at 10 uM measured after 72 hrs by MTT assay relative to control; assay type: functional; conditions: read-out: GI
[4] = biological target: High affinity nerve growth factor receptor (Homo sapiens, UniProt P04629); assay: Inhibition of human Trk-A using myelin basic protein as substrate incubated for 40 mins in presence of [gamma33P]ATP by scintillation counting method
High affinity nerve growth factor receptor, sequence (P04629 whole entry): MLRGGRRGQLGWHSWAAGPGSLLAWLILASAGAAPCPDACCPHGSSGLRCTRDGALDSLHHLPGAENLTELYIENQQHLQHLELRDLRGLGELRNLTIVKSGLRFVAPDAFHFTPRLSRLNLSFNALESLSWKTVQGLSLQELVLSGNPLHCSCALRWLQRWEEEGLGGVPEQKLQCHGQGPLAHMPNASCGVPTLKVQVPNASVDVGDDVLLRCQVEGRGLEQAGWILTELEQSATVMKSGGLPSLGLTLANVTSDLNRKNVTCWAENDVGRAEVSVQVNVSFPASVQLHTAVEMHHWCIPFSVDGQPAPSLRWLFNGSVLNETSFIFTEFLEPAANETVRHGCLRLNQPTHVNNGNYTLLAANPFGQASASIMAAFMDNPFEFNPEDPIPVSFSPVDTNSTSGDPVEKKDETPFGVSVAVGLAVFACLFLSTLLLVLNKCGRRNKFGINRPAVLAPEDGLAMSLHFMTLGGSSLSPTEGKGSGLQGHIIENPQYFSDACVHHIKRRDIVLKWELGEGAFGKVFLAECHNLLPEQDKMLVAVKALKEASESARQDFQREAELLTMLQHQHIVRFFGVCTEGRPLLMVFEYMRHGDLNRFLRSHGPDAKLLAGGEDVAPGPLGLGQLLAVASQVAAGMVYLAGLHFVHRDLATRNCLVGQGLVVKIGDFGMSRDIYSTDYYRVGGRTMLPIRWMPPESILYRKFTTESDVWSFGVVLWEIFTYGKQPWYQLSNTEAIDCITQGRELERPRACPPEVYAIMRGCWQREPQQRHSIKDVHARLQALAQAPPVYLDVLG

[5] = biological target: Fibroblast growth factor receptor 2 (Homo sapiens) (UniProt P21802); assay: Inhibition of human FGFR2 at 10 uM using myelin basic protein as substrate incubated for 40 mins in presence of [gamma33P]ATP by scintillation counting method relative to control
Fibroblast growth factor receptor 2 (Homo sapiens), sequence (P21802 22-821 limits assumed): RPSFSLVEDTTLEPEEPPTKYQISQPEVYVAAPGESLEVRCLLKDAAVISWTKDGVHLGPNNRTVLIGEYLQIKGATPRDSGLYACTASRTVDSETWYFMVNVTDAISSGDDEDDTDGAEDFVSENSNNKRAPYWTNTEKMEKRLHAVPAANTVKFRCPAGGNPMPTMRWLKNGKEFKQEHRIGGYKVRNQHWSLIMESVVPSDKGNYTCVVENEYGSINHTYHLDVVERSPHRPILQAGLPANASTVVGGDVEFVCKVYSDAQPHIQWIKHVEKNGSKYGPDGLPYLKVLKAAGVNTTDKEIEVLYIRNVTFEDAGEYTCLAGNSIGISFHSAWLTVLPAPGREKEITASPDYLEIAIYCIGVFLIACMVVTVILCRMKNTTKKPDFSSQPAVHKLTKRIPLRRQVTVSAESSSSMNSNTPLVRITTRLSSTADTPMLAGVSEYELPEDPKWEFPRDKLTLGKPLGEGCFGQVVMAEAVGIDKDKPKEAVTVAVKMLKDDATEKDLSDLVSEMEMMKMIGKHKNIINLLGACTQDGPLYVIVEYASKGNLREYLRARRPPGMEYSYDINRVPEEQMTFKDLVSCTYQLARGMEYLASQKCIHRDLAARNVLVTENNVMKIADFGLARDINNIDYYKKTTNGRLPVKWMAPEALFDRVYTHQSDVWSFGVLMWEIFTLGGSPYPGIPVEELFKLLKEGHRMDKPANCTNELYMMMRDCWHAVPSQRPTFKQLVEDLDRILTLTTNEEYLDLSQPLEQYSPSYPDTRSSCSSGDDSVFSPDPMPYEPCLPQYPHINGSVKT

[6] = biological target: Fibroblast growth factor receptor 1 (Homo sapiens) (UniProt P11362); assay: Inhibition of human FGFR1 at 10 uM using myelin basic protein as substrate incubated for 40 mins in presence of [gamma33P]ATP by scintillation counting method relative to control
Fibroblast growth factor receptor 1 (Homo sapiens), sequence (P11362 22-822 limits assumed): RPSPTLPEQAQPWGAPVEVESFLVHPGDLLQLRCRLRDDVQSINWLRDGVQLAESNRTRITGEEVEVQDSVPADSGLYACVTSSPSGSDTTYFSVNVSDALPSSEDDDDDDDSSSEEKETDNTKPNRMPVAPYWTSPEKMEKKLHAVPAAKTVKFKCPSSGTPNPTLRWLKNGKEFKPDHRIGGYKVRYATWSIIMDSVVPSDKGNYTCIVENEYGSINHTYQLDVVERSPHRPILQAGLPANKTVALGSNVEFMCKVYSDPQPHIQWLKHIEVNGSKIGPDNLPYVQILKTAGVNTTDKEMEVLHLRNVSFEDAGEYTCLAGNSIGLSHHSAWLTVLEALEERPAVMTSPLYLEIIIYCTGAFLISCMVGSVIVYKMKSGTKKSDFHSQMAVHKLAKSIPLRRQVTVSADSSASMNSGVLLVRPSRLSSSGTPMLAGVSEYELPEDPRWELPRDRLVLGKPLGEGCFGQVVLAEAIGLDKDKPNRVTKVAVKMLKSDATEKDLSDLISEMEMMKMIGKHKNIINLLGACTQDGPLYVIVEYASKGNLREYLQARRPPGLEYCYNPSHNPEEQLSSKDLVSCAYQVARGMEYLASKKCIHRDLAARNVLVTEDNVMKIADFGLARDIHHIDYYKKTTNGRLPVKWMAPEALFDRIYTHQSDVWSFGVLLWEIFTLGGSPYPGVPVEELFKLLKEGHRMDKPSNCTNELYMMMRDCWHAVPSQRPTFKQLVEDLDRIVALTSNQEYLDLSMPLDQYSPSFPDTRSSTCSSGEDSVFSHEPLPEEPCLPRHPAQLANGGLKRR

[7] = tested on: HCT-116; assay: Antiproliferative activity against human HCT-116 cells assessed as cell growth inhibition measured after 72 hrs by MTT assay; assay type: functional
[8] = tested on: SK-BR-3; assay: Antiproliferative activity against human SK-BR-3 cells assessed as cell growth inhibition measured after 72 hrs by MTT assay; assay type: functional
[9] = tested on: MCF7; assay: Antiproliferative activity against human MCF7 cells assessed as cell growth inhibition measured after 72 hrs by MTT assay; assay type: functional

| Compound | inhibition of growth at 10 µM [1] | inhibition of growth at 10 µM [2] | inhibition of growth at 10 µM [3] | IC50 [4] | inhibition [5] | inhibition [6] | GI50 [7] | GI50 [8] | GI50 [9] |
| --- | --- | --- | --- | --- | --- | --- | --- | --- | --- |
| Nc1nc2[nH]cc(CN3CCN(c4ccccc4)CC3)c2c(=O)[nH]1 | 49% | 30.7% | 49.7% |  |  |  |  |  |  |
| CCCCCCCC(=O)Nc1nc2[nH]cc(CN3CCN(CCN4CCOCC4)CC3)c2c(=O)[nH]1 | 93% | 90.4% | 88.6% |  |  |  |  |  |  |
| CCCCCCCC(=O)Nc1nc2[nH]c(CN3CCN(Cc4ccccc4)CC3)c(CN3CCN(Cc4ccccc4)CC3)c2c(=O)[nH]1 | 97% | 93.4% | 96.6% | 2.29 µM | 24% | 47.1% | 4.09 µM | 3.64 µM | 2.78 µM |
| CCCCCCCC(=O)Nc1nc2[nH]cc(CN3CCN(c4ccc([N+](=O)[O-])cc4)CC3)c2c(=O)[nH]1 | 68.5% | 61.6% | 40.4% |  |  |  |  | 8.04 µM |  |
| Nc1nc2[nH]cc(CN3CCN(CCN4CCOCC4)CC3)c2c(=O)[nH]1 | 15.4% | 27.1% | 19.5% |  |  |  |  |  |  |
| CCCCCCCC(=O)Nc1nc2[nH]cc(CN3CCN(c4cccc(Cl)c4)CC3)c2c(=O)[nH]1 | 72.7% | 69.7% | 43.4% |  |  |  | 7.17 µM | 0.95 µM |  |
| CCCCCCCC(=O)Nc1nc2[nH]cc(CN3CCN(C)CC3)c2c(=O)[nH]1 | 51% | 50.4% | 59.6% |  |  |  |  |  |  |
| CCCCCCCC(=O)Nc1nc2[nH]c(CN3CCN(Cc4ccc(F)cc4)CC3)c(CN3CCN(Cc4ccc(F)cc4)CC3)c2c(=O)[nH]1 | 97.1% | 93.5% | 97.2% | 2.76 µM | 14.7% | 50.5% | 4.13 µM | 3.6 µM | 1.75 µM |
| CCCCCCCC(=O)Nc1nc2[nH]cc(CN3CCC(NC(=O)OC(C)(C)C)CC3)c2c(=O)[nH]1 | 50.3% | 59.3% | 36.5% |  |  |  |  |  |  |
| COc1ccc(N2CCN(Cc3c[nH]c4nc(N)[nH]c(=O)c34)CC2)cc1 | 69.2% | 57.5% | 51.7% |  |  |  |  | 11.2 µM |  |
| CCCCCCCC(=O)Nc1nc2[nH]cc(CN3CCN(C(c4ccccc4)c4ccccc4)CC3)c2c(=O)[nH]1 | 75.5% | 67.4% | 58.4% |  |  |  | 1.01 µM | 0.41 µM |  |
| CCCCCCCC(=O)Nc1nc2[nH]cc(CN3CCN(C(C)=O)CC3)c2c(=O)[nH]1 | 43.8% | 40.2% | 35.8% |  |  |  |  |  |  |
| CC(=O)N1CCN(Cc2c[nH]c3nc(N)[nH]c(=O)c23)CC1 | 13.8% | 24.2% | 16.2% |  |  |  |  |  |  |
| CN1CCN(Cc2c[nH]c3nc(N)[nH]c(=O)c23)CC1 | 16.5% | 29% | 20.2% |  |  |  |  |  |  |
| CCCCCCCC(=O)Nc1nc2[nH]c(CN3CCN(c4ccc([N+](=O)[O-])cc4)CC3)c(CN3CCN(c4ccc([N+](=O)[O-])cc4)CC3)c2c(=O)[nH]1 | 27% | 64.6% | 12.6% |  |  |  |  |  |  |
| Nc1nc2[nH]c(CN3CCN(c4ccc([N+](=O)[O-])cc4)CC3)c(CN3CCN(c4ccc([N+](=O)[O-])cc4)CC3)c2c(=O)[nH]1 | 1.94% | 6.79% | 1.26% |  |  |  |  |  |  |
| N#Cc1ccccc1N1CCN(Cc2c[nH]c3nc(N)[nH]c(=O)c23)CC1 | 72% | 73.8% | 51.1% |  |  |  | 8.37 µM | 23.7 µM |  |
| Nc1nc2[nH]c(CN3CCN(Cc4cccc(F)c4)CC3)c(CN3CCN(Cc4cccc(F)c4)CC3)c2c(=O)[nH]1 | 13.6% | 10.5% | 16.1% |  |  |  |  |  |  |
| COc1c(C)cnc(Cn2cnc3c(Cl)nc(N)nc32)c1C [BIIB021] | 86.2% | 71.9% | 84.8% |  |  |  |  | 0.347 µM | 0.392 µM |
| CCCCCCCC(=O)Nc1nc2[nH]cc(CN3CCN(c4ccc(OC)cc4)CC3)c2c(=O)[nH]1 | 71.4% | 71.4% | 49.2% |  |  |  | 8.94 µM | 1.23 µM |  |
| Nc1nc(O)c2c(CN3CCCCC3)c[nH]c2n1 | 24.1% | 17.5% | 23.8% |  |  |  |  |  |  |

| Compound | inhibition of growth at 10 µM [1] | inhibition of growth at 10 µM [2] | inhibition of growth at 10 µM [3] | IC50 [4] | inhibition [5] | inhibition [6] | GI50 [7] | GI50 [8] | GI50 [9] |
| --- | --- | --- | --- | --- | --- | --- | --- | --- | --- |
| Nc1nc2[nH]cc(CN3CCN(C(c4ccccc4)c4ccccc4)CC3)c2c(=O)[nH]1 | 80.5% | 4.22% | 79.5% |  |  |  | 20.3 µM |  | 33.9 µM |
| CCCCCCCC(=O)Nc1nc2[nH]cc(CN3CCCCC3)c2c(=O)[nH]1 | 51.1% | 77.1% | 70.2% |  |  |  | 14.9 µM | 15 µM | 13.4 µM |
| Nc1nc2[nH]c(CN3CCN(Cc4ccc(F)cc4)CC3)c(CN3CCN(Cc4ccc(F)cc4)CC3)c2c(=O)[nH]1 | 23% | 23.2% | 18.4% |  |  |  |  |  |  |
| CCCCCCCC(=O)Nc1nc2[nH]c(CN3CCN(Cc4ccccc4F)CC3)c(CN3CCN(Cc4ccccc4F)CC3)c2c(=O)[nH]1 | 97.3% | 93.4% | 96.1% | 3.15 µM | 23% | 59.8% | 1.89 µM | 3.73 µM | 4.2 µM |
| Nc1nc2[nH]cc(CN3CCN(c4ccc([N+](=O)[O-])cc4)CC3)c2c(=O)[nH]1 | 28.5% | 27.5% | 26.8% |  |  |  |  |  |  |
| Nc1nc2[nH]cc(CN3CCN(CCO)CC3)c2c(=O)[nH]1 | 17.8% | 32.8% | 18.8% |  |  |  |  |  |  |
| Nc1nc2[nH]c(CN3CCN(Cc4ccccc4)CC3)c(CN3CCN(Cc4ccccc4)CC3)c2c(=O)[nH]1 | 21.4% | 15.7% | 21.2% |  |  |  |  |  |  |
| CCCCCCCC(=O)Nc1nc2[nH]cc(CN3CCN(CCO)CC3)c2c(=O)[nH]1 | 67.3% | 62.2% | 42% |  |  |  |  |  |  |
| CCCCCCCC(=O)Nc1nc2[nH]c(CN3CCN(c4cc(Cl)cc(Cl)c4)CC3)c(CN3CCN(c4cc(Cl)cc(Cl)c4)CC3)c2c(=O)[nH]1 | 6.88% | 42.5% | 10.7% |  |  |  |  |  |  |
| CCCCCCCC(=O)Nc1nc2[nH]cc(CN3CCN(Cc4cccc(F)c4)CC3)c2c(=O)[nH]1 | 92.8% | 91.2% | 85.7% |  |  |  | 5.34 µM | 5.58 µM | 7.84 µM |
| CCCCCCCC(=O)Nc1nc2[nH]cc(CN3CCN(c4ccccc4C#N)CC3)c2c(=O)[nH]1 | 79.5% | 84.6% | 59.2% |  |  |  | 1.46 µM | 0.97 µM |  |
| Nc1nc2[nH]c(CN3CCN(Cc4ccccc4F)CC3)c(CN3CCN(Cc4ccccc4F)CC3)c2c(=O)[nH]1 | 12.8% | 59% | 8.91% |  |  |  |  |  |  |
| Nc1nc2[nH]cc(CN3CCN(c4cccc(Cl)c4)CC3)c2c(=O)[nH]1 | 79.3% | 67.5% | 54.2% |  |  |  | 7.66 µM | 8.28 µM |  |
| CCCCCCCC(=O)Nc1nc2[nH]c(CN3CCN(C(c4ccccc4)c4ccccc4)CC3)c(CN3CCN(C(c4ccccc4)c4ccccc4)CC3)c2c(=O)[nH]1 | 41.5% | 67.3% | 15.2% |  |  |  | 18.4 µM | 6.43 µM |  |
| CCCCCCCC(=O)Nc1nc2[nH]cc(Cn3ccnc3)c2c(=O)[nH]1 | 80.5% | 86.1% | 68.2% |  |  |  |  |  |  |
| CCCCCCCC(=O)Nc1nc2[nH]cc(CN3CCN(C(=O)c4ccco4)CC3)c2c(=O)[nH]1 | 60.2% | 71.2% | 68.5% |  |  |  |  |  |  |
| Nc1nc2[nH]c(CN3CCN(C(c4ccccc4)c4ccccc4)CC3)c(CN3CCN(C(c4ccccc4)c4ccccc4)CC3)c2c(=O)[nH]1 | 10.7% | 11.1% | 13.8% |  |  |  |  |  |  |
| Nc1nc2[nH]cc(CN3CCN(Cc4cccc(F)c4)CC3)c2c(=O)[nH]1 | 31.1% | 16.8% | 20.6% |  |  |  |  |  |  |
| CCCCCCCC(=O)Nc1nc2[nH]cc(CN3CCN(c4ccccc4)CC3)c2c(=O)[nH]1 | 73.9% | 67.6% | 50.3% |  |  |  | 3.99 µM | 0.63 µM |  |
| Nc1nc2[nH]cc(Cn3ccnc3)c2c(=O)[nH]1 | 50.6% | 38.8% | 38.8% |  |  |  |  |  |  |
